Source: ChEMBL document CHEMBL1128565, “Aspartyl alpha-((diphenylphosphinyl)oxy)methyl ketones as novel inhibitors of interleukin-1 beta converting enzyme. Utility of the diphenylphosphinic acid leaving group for the inhibition of cysteine proteases” (J Med Chem, 1995)

What was measured:
Caspase-1 (Homo sapiens) = target: T1, Caspase-1 (Homo sapiens) (UniProt P29466); assay: Inhibition of interleukin-1-beta converting enzyme at pH 7.4, 37 degree C
T1 sequence (whole entry): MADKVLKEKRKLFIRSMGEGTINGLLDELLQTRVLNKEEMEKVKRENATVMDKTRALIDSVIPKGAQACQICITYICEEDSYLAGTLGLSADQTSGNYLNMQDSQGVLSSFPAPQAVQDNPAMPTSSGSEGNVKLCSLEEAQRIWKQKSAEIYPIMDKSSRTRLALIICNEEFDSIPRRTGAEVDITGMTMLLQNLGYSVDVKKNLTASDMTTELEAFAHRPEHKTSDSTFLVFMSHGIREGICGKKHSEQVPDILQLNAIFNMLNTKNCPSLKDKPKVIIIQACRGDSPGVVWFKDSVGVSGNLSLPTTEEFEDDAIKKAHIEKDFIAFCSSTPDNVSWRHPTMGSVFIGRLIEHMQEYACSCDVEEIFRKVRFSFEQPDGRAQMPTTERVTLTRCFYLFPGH

[1] = target: Cathepsin B (Homo sapiens) (UniProt P07858); assay: Inhibition of Cathepsin B at pH 6.5 and 25 degrees Centigrade.
[2] = target: T2, Calpain-1 catalytic subunit (Homo sapiens) (UniProt P07384); assay: Inhibition of Human erythrocyte calpain 1 using a continuous assay at pH 7.5 and 8 degrees Centigrade.
T2 sequence (whole entry): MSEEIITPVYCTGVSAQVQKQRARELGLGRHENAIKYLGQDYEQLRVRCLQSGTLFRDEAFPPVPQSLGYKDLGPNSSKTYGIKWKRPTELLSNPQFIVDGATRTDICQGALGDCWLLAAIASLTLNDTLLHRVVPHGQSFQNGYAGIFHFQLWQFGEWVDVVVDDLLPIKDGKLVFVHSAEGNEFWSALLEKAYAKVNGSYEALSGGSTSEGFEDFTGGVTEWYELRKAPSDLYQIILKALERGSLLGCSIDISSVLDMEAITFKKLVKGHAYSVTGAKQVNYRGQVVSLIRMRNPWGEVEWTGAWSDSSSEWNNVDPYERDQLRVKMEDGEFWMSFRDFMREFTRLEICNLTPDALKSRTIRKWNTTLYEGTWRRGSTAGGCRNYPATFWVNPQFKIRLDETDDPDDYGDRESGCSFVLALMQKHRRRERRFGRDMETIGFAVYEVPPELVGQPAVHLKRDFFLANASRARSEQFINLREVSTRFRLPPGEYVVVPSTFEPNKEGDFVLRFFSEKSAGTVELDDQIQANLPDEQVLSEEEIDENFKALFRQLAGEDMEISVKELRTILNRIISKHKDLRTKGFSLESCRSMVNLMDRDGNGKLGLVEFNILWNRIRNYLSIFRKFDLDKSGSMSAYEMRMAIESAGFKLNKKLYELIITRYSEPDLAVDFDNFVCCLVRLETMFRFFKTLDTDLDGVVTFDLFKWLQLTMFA

[3] = target: T2, Calpain-1 catalytic subunit (Homo sapiens); assay: Inhibition of Human erythrocyte calpain 1 using a continuous assay at pH 7.5 and 8 degrees Centigrade
[4] = target: Cathepsin B (Homo sapiens) (UniProt P07858); assay: Inhibition of Cathepsin B at 8 degrees Centigrade.
[5] = target: Procathepsin L (Homo sapiens) (UniProt P07711); assay: Inhibitory activity against Cathepsin L at 8 degrees Centigrade.
[6] = target: Cathepsin B (Homo sapiens) (UniProt P07858); assay: Inhibition of Cathepsin B at pH 6.5 and 250 (1/M 1/s) 8 degrees Centigrade.
[7] = target: Cathepsin B (Homo sapiens) (UniProt P07858); assay: Inhibition of Cathepsin B at pH 6.5 and 360000 (1/M 1/s) at 8 degrees Centigrade.

Sequence of Procathepsin L (Homo sapiens) (P07711 114-333 limits assumed): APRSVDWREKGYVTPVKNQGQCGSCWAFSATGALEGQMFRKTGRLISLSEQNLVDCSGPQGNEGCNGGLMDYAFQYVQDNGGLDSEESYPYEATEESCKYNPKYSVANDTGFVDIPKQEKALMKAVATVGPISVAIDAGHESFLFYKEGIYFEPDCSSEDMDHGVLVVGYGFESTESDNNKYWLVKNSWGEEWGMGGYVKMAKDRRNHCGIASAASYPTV

| K obs / 1 (Caspase-1 (Homo sapiens)) [M⁻¹ s⁻¹] | K obs / 1 [1] [M⁻¹ s⁻¹] | Compound | also measured |
| --- | --- | --- | --- |
| < 500 | 2300 | C[C@H](NC(=O)[C@@H](Cc1ccccc1)NC(=O)OCc1ccccc1)C(=O)COc1cc(C(F)(F)F)nn1-c1ccccc1 | K obs / 1 [2]: < 500 M⁻¹ s⁻¹ |
|  | < 500 | CC(C)C[C@@H](NC(=O)OCc1ccccc1)C(=O)N[C@@H](Cc1ccccc1)C(=O)COc1cc(C(F)(F)F)nn1-c1ccccc1 | K obs / 1 [2]: < 500 M⁻¹ s⁻¹ |
| 20000 | < 500 | CC(C)[C@@H](NC(=O)OCc1ccccc1)C(=O)N[C@@H](CC(=O)O)C(=O)COc1cc(C(F)(F)F)nn1-c1ccccc1 |  |
| < 500 | < 500 | CC(C)C[C@@H](NC(=O)OCc1ccccc1)C(=O)N[C@@H](Cc1ccccc1)C(=O)COP(=O)(c1ccccc1)c1ccccc1 | K obs / 1 [3]: 10000 M⁻¹ s⁻¹ |

The next lines start with the molecule.

| Compound | K obs / 1 (Caspase-1 (Homo sapiens)) [M⁻¹ s⁻¹] | K obs / 1 [1] [M⁻¹ s⁻¹] | also measured |
| --- | --- | --- | --- |
| CC(C)[C@@H](NC(=O)OCc1ccccc1)C(=O)N[C@@H](CC(=O)O)C(=O)COP(=O)(c1ccc(Cl)cc1)c1ccc(Cl)cc1 | 77300 |  |  |
| CC(C)C[C@@H](NC(=O)[C@@H](C)NC(=O)OCc1ccccc1)C(=O)N[C@H](Cc1ccccc1)C(=O)COC(=O)c1c(F)cccc1F |  |  | K obs / 1 [3]: 31000 M⁻¹ s⁻¹; K obs / 1 [4]: 100 M⁻¹ s⁻¹; K obs / 1 [5]: 300 M⁻¹ s⁻¹ |
| CC(C)[C@@H](NC(=O)OCc1ccccc1)C(=O)N[C@@H](CC(=O)O)C(=O)COC(=O)c1c(Cl)cccc1Cl | 30000 |  |  |
| CC(C)[C@H](NC(=O)OCc1ccccc1)C(=O)N[C@@H](C)C(=O)N[C@@H](CC(=O)O)C(=O)COP(=O)(c1ccc(Cl)cc1)c1ccc(Cl)cc1 | 230000 |  |  |
| O=C(O)C[C@H](NC(=O)OCc1ccccc1)C(=O)COP(=O)(c1ccccc1)c1ccccc1 | 11800 |  |  |
| CC(C)[C@@H](NC(=O)OCc1ccccc1)C(=O)N[C@@H](CC(=O)O)C(=O)CO[PH](=O)c1ccccc1 (some centres not stated) | < 500 |  |  |
| CC(C)[C@@H](NC(=O)OCc1ccccc1)C(=O)N[C@@H](CC(=O)O)C(=O)COP(=O)(c1ccccc1)c1ccccc1 | 50200 | < 500 |  |
| CC(C)C[C@@H](NC(=O)[C@@H](C)NC(=O)OCc1ccccc1)C(=O)N[C@H](Cc1ccccc1)C(=O)COC(=O)c1c(F)ccc(OCCN2CCOCC2)c1F |  |  | K obs / 1 [3]: 32000 M⁻¹ s⁻¹; K obs / 1 [4]: 400 M⁻¹ s⁻¹; K obs / 1 [5]: 28000 M⁻¹ s⁻¹ |
| CC(C)C[C@@H](NC(=O)OCc1ccccc1)C(=O)N[C@@H](Cc1ccccc1)C(=O)COC(=O)c1c(Cl)cccc1Cl |  |  | K obs / 1 [6]: < 1000 M⁻¹ s⁻¹; K obs / 1 [2]: 11400 M⁻¹ s⁻¹ |
| CC(C)[C@H](NC(=O)OCc1ccccc1)C(=O)N[C@@H](C)C(=O)N[C@@H](CC(=O)O)C(=O)COP(=O)(c1ccccc1)c1ccccc1 |  | 1700 |  |
| CC(C)[C@@H](NC(=O)OCc1ccccc1)C(=O)N[C@@H](CC(=O)O)C(=O)COP(C)(C)=O | 12300 |  |  |
| C[C@H](NC(=O)[C@@H](Cc1ccccc1)NC(=O)OCc1ccccc1)C(=O)COP(=O)(c1ccccc1)c1ccccc1 | < 500 | 400000 |  |
| C[C@H](NC(=O)[C@@H](Cc1ccccc1)NC(=O)OCc1ccccc1)C(=O)COC(=O)c1c(Cl)cccc1Cl | < 500 |  | K obs / 1 [3]: 300 M⁻¹ s⁻¹; K obs / 1 [7]: 1.5e+06 M⁻¹ s⁻¹ |
